Source: US20260356879A1, “CELASTROL DERIVATIVES” (Celloram Inc., priority 2022, published 2026)
pIC50: −log10 of the molar value.

Assays:
[1] = test system: LPS-induced acute inflammation; assay: LPS-induced septic shock mouse model, cytokine expression in serum (ELISA) and colonic mucosa (qPCR); format: in vivo
Method: FIG. 4A, and FIG. 4B depict results showing that compound 22 (CLM-022) decreased the production of pro-inflammatory cytokines in the LPS-induced septic shock mouse model as described in Example 17. Compound 1 (CLM-001) and compound 22 (CLM-022) (1 mg/kg) injected intraperitoneally 1 hour prior to septic shock induction by administering sublethal dose of LPS (25 mg/kg, i.p.), mice were sacrificed 4 hours post LPS injection, and subjected to measurement of inflammatory cytokine expression. FIG. 4A depicts plot of data showing that the level of TNF-α decreased in the serum of compound 1 and compound 22 treated mice.
This example illustrates a study of the inhibitory function of an exemplary celastrol derivative of the present disclosure (compound 22) against LPS-induced acute inflammation in vivo, we set up LPS-induced septic shock mouse model (Yu et al., 2017) and detected the expression levels of inflammatory cytokines in colon.
Mice (n=3 per group) were administered intraperitoneally (i.p.) with control vehicle, compound 1 (1 mg/kg), or compound 22 (1 mg/kg). After 1 hour, mice were administered by i.p. injection a sublethal dose of LPS (25 mg/kg). Four hours later, the mice were subjected to blood collection and harvesting colonic mucosa by scraping colon. Cytokine expression was measured by conducting ELISA (Cat #900-T54, PeproTech) for TNF-α on blood serum samples and qPCR for the cytokines, IL-1 (TaqMan, Mm00434228), IL-6 (TaqMan, Mm00446190), TNF-α (TaqMan, 00443258), iNOS (TaqMan, 00440502), on colonic mucosa samples.

NLRP3 inflammasome [2] = assay: IL-1β secretion in BMDMs, LPS + Nigericin; format: cell-based, mouse; settings: FIG. 5A; for inhibition of IL-1β secretion: LPS + Nigericin
Method: This example illustrates a comparative study of CLM-022 and MCC950 in inhibiting NLRP3 inflammasome activity in mouse and human macrophages.
Bone marrow-derived macrophages (BMDMs) were treated with LPS (100 ng/ml) for 3 hours to induce the expression of inflammatory genes, including TNF-α, NLRP3, and pro-IL-1β. Subsequently, the BMDMs were treated with CLM-022 or MCC950 in a dose range of 0-10 μM for 30 minutes. Then, to fully activate NLRP3-dependent inflammasome activity and cytokine secretion, Nigericin (10 μM) was added to the BMDMs for an additional 30 minutes.

NLRP3 inflammasome [3] = assay: ASC complex formation in THP-1 cells (western blot), LPS+Nigericin; format: cell-based, human; settings: THP-1, 50 nM and 100 nM, FIG. 3A
Method: This example illustrates a study of the anti-inflammatory potential of an exemplary celastrol derivative of the present disclosure (compound 22) using an NLRP3 inflammasome assay in THP-1, a human monocytic cell line, activated with LPS+Nigericin in the presence of compound 22 or the known NLRP3 inhibitor compound, MCC950 (CAS 256373-96-3), as a benchmark molecule.
Human THP-1 cells were treated with LPS+Nigericin as shown previously (FIG. 2) where increasing dose of compound 1, compound 22, or MCC950 were added as indicated.

THP-1 cells = assay: LDH release (NLRP3 inflammasome-induced cytotoxicity) in THP-1 cells; format: cell-based, human; settings: for inhibition of inflammasome-induced pyroptosis: human THP-1 macrophages, overall comparison with MCC950, FIG. 7A-7C
Source text: Pyroptosis, a pro-inflammatory form of cell death, is triggered by the activation of NLRP3 inflammasome components (GSDMD and Caspase-1), leading to the release of pro-inflammatory cytokines IL-1β and IL-18, as well as damage-associated molecular patterns (DAMPs). This process elicits a cascade of inflammatory responses, which can persist if dysregulated in affected tissues. Given the significant inhibitory potential of CLM-022 against NLRP3 inflammasome and IL-1β secretion, it was proposed that CLM-022 could effectively enhance cell viability by inhibiting pyroptosis in the context of inflammation and inflammasome activation. This example illustrates a comparative study of the abilities of CLM-022 and MCC950 to protect THP-1 cells from inflammasome-induced pyroptosis.
After LPS and Nigericin treatment, THP-1 cells were treated with either CLM-022 or MCC950 over a dosage range of 0 μM to 10 μM and cell viability was determined by impermeant live/dead staining dye and flow cytometric analysis. Additionally, NLRP3 inflammasome-induced cytotoxicity was investigated by measuring the level of LDH in the conditioned media after the CLM-022 and MCC950 treatments. Further, Western blotting of samples from the THP-1 cell viability assays was carried out to determine levels of the pyroptosis-mediating molecules, GSDMD and Caspase-1.

CC1=C(O)C(=O)C=C2C1=CC=C1[C@@]2(C)CC[C@@]2(C)[C@@H]3C[C@](C)(N(C)C(=O)C(=O)N(C)C)CC[C@]3(C)CC[C@]12C [Compound 22, N′-[(2R,4aS,6aR,6aS,14aS,14bR)-10-hydroxy-2,4a,6a,6a,9,14a-hexamethyl-11-oxo-1,3,4,5,6,13,14,14b-octahydropicen-2-yl]-N,N,N′-trimethyl-oxamide]
level of TNF-α in serum ([1]; 1 mg/kg i.p. 1 hour before LPS (25 mg/kg, i.p.), 4 hours post LPS, ELISA, FIG. 4A): decreased | gene expression of IL-1β, IL-6, TNF-α, and iNOS in the colon ([1]; 1 mg/kg i.p. 1 hour before LPS (25 mg/kg, i.p.), 4 hours post LPS, qPCR, FIG. 4B): markedly inhibited | inhibition of LPS-induced acute inflammation responses (IL-1, IL-6, TNF-α, iNOS in blood serum and colon mucosa) ([1]; 1 mg/kg i.p., LPS 25 mg/kg i.p., FIGS. 4A and 4B): efficiently suppressed expression of an inflammatory mediator and the inflammatory cytokines including IL-1, IL-6, TNF-α, and INOS in the blood serum and colon mucosa to levels comparable to or lower than the levels observed in the group administered celastrol (Compound 1) | inhibition of IL-1β secretion (NLRP3 inflammasome [2]): outperforms the benchmark inflammasome inhibitor compound, MCC950, in inhibiting IL-1β secretion (but not TNF-α secretion) | inhibition of IL-1β secretion (NLRP3 inflammasome [2]; listed as CLM-022): significant inhibition of IL-1β secretion | pIC50 (NLRP3 inflammasome [2]; Mus musculus, BMDM, LPS (100 ng/ml) + Nigericin (10 μM), 0-10 μM, read-out: IC50 for inhibition of IL-1β secretion (normalized)): 8.05 | ASC complex formation (NLRP3 inflammasome [3]): strongly inhibited this ASC complex formation with an inhibitory capacity that was stronger than that observed for celastrol (compound 1) and MCC950 | pIC50 (THP-1 cells; Homo sapiens, THP-1, LPS and Nigericin, 0 μM to 10 μM, FIG. 7B, read-out: IC50 for LDH release (normalized)): 7.91 | inhibition of LDH release (THP-1 cells; THP-1, LPS and Nigericin, FIG. 7B): significantly inhibited release of LDH | higher potency relative to MCC950 in preventing pyroptosis (THP-1 cells; from LDH release IC50 values, FIG. 7B): 10 fold | inhibition of inflammasome-induced pyroptosis (THP-1 cells): greater capacity to inhibit inflammasome-induced pyroptosis in human THP-1 macrophages | inhibition of inflammasome-induced pyroptosis (THP-1 cells; listed as CLM-022): greater capacity than the benchmark molecule, MCC950, to inhibit inflammasome-induced pyroptosis in human THP-1 macrophages
